The text below walks through data of patent publication US8309599B2, “Synthesis of FR901464 and analogs with antitumor activity” (University of Pittsburgh-Of The Commonwealth System of …, priority 2006, dated 2012).

The structures appear in SMILES notation. Read-outs that look alike come from different tables or passages of the source.

For one series, the system named is H1299. It is filed as cell-based. The conditions noted are these: Homo sapiens, NCI-H1299; H1299, 3 to 5 days.
The test system of the next series is A549. It is filed as cell-based. The conditions noted are these: Homo sapiens; A549, 3 to 5 days.
A further series concerns MDA-MB-231. The series is classed as cell-based. The conditions noted are these: Homo sapiens; MDA-MB-231, 3 to 5 days.
For series [1], the system named is MCF-7. Nature of the series: cells. The note with it: Homo sapiens, MCF7.
For the next series, the system named is HeLa. The series is classed as cell-based. The conditions noted are these: Homo sapiens, 3 to 5 days.
For a further series, the system named is DU145. It is filed as cell-based. The conditions noted are these: Homo sapiens, DU-145; DU145, 3 to 5 days.
The subject of a further series is PC-3. It is filed as cell-based. The conditions noted are these: Homo sapiens; PC-3, 3 to 5 days.
The test system of a further series is HCT116. The series is classed as cell-based. The note with it: Homo sapiens, HCT-116; HCT116, 3 to 5 days.
The conditions of series [2]: mouse model; cited from earlier work.
For series [3], the system named is mRNA levels of p53, p21, c-myc, and E2F-1. The note with it: MCF-7 cells at 20 nM; cited from earlier work.
The subject of series [4] is MCF-7 cells. The conditions noted are these: read-out: LC50 (apparent apoptosis); cited from earlier work.
For series [5], the system named is MCF-7 cells. Nature of the series: MCF-7 cell count with hemacytometer and trypan blue. The note with it: for viability at 0.01 µM: Homo sapiens; for percent of cells present: 200 nM positive control.
Experimental: MCF-7 cells were used in this experiment.
Cell proliferation was measured by manual counting using a hemacytometer by trypsinizing and staining with trypan blue.
For series [6], the system named is DC3F transformed Chinese hamster cells. Nature of the series: Antiproliferative activity in parental cells. The series is classed as cell-based. The note with it: for GI50: Cricetulus griseus, DC3F, read-out: average GI50 DC3F; for growth inhibition of parental DC3F cells: in words.
For series [7], the system named is HeLa cells. The experiment in a line: High-content analysis of mitotic arrest and microtubule perturbation. The series is classed as cell-based. The conditions noted are these: HeLa cells treated for 21 h.
Series [8] concerns MCF-7. The conditions noted are these: MCF-7, 5-day assay.
Series [9] has as its system IMR-90 human lung fibroblasts. The experiment in a line: High-content selectivity study, normal cells.
The test system of a further series is A-549 lung cancer cells. Nature of the series: High-content selectivity study, cancer cells.
For series [10], the system named is HeLa cells. The experiment in a line: Reversibility test (drug washout, MTS). The series is classed as cell-based. The conditions noted are these: preliminary result. As to the method: (§1) One concentration was used in each experiment for all times examined. […] At the desired time intervals, the media containing the drug was removed, the wells were washed 5 times with new media and 200 μL of new media containing 1% DMSO was added.
(§2) All cells were treated at the same time meayamycin at 1 nM concentration. At the given time interval, the drug-containing media was removed and replaced with fresh media. Cell proliferation was measured at the last time interval (72 h).

Series [11] concerns MCF-7 cells. The experiment in a line: Reversibility test (drug washout, MTS). It is filed as cell-based. The note with it: 1 nM, washout at intervals, read at 72 h. As for the experimental part:
as §1, §2

A further series concerns A549 cells. The experiment in a line: Reversibility test (drug washout, MTS). The conditions noted are these: 1 nM, washout at intervals, read at 72 h. The series is classed as cell-based. As for the experimental part: as §1, §2
Series [12] relates to multidrug resistant subline VCRd5L. The experiment in a line: Antiproliferative activity in multidrug resistant cells. The series is classed as cell-based, Chinese hamster. The note with it: for GI50: Cricetulus griseus, read-out: average GI50 VCRd5L.
[13] abbreviates: MCF7, 24 h, read-out: Percent Viable Cells, 10 nM, 24 hours.
Where [14] appears, read: MCF7, 48 h, read-out: Percent Viable Cells, 10 nM, 48 hours.

As usually defined, the GI50 is the concentration that inhibits growth by half.

Turning to `CC(/C=C/[C@H]1OC(C)(C)C[C@@]2(CO2)[C@@H]1O)=C\C[C@@H]1O[C@H](C)[C@H](NC(=O)/C=C\[C@H](C)O)C[C@@H]1C` [4′-desacetyl meayamycin], the GI50 in the series on H1299 was 1 nM; with A549, 0.74 nM; with MDA-MB-231, 0.35 nM; with MCF-7 [1], 0.48 nM; with HeLa, 1 nM.
For the compound `CC(=O)O[C@@H](C)/C=C\C(=O)N[C@@H]1CC[C@H](C/C=C(C)/C=C/[C@H]2OC(C)(C)C[C@@]3(CO3)[C@@H]2O)O[C@@H]1C` [12-desmethyl meayamycin], the GI50 in the series on DU145 was 3.5 nM; in the series on PC-3 it was 1.6 nM; in the series on H1299, 2.8 nM; in the series on A549, 1 nM; in the series on MDA-MB-231, 0.7 nM; in the series on MCF-7 [1], 0.3 nM. This compound gave a GI50 in the series with HCT116 of 2.2 nM.
Turning to `CC(=O)O[C@@H](C)/C=C\C(=O)N[C@@H]1C[C@H](C)[C@H](C/C=C(C)/C=C/[C@H]2O[C@](C)(O)C[C@@]3(CO3)[C@@H]2O)O[C@@H]1C` [FR901464], in series [2], the “antitumor activity, active dose” value was 0.056 to 0.18 mg/kg. The “mRNA levels of p53, p21, c-myc, and E2F-1” value in [3] is “lowers the mRNA levels”. Besides, the CC50 in the series on MCF-7 cells [4] is 0.5 nM. In addition, the viability at 0.01 µM with MCF-7 cells [5] (setting [13]) is 81%; in the series on MCF-7 cells [5] (setting [14]), 49%. Moreover, in series [6], the GI50 turned out to be 7.49 ± 1.26 nM. Moreover, the “growth inhibition of parental DC3F cells” value in series [6] is listed as “potently inhibited the growth”. Moreover, the mitotic arrest entry with HeLa cells [7] is on record as “neither FR 901464 nor meayamycin were mitotic arresters”.
Consider `CC(=O)O[C@@H](C)/C=C\C(=O)N[C@@H]1CO[C@H](C/C=C(C)/C=C/[C@H]2OC(C)(C)C[C@@]3(CO3)[C@@H]2O)O[C@@H]1C` [acetal meayamycin], for which growth in the series with MCF-7 [1] was halved (GI50) at 2.5 nM.
Consider `CC(/C=C/[C@H]1OC(C)(C)C[C@@]2(CO2)[C@@H]1O)=C\C[C@@H]1O[C@H](C)[C@H](NC(=O)/C=C\[C@H](C)OC(=O)N2CCOCC2)C[C@@H]1C` [meayamycin B, (2Z,4S)-4-[(morpholinylcarbonyl)oxy]-N-[(2R,3R,5S,6S)-tetrahydro-6-[(2E,4E)-5-[(3R,4R,5R)-4-hydroxy-7,7-dimethyl-1,6-dioxaspiro[2.5]oct-5-yl]-3-methyl-2,4-pentadien-1-yl]-2,5-dimethyl-2H-pyran-3-yl]-2-pentenamide], for which, in the series on MCF-7 [8], the “times more potent than meayamycin in cultured cells” value is 2 times.
Take `CC(=O)O[C@@H](C)/C=C\C(=O)N[C@@H]1C[C@H](C)[C@H](C/C=C(C)/C=C/[C@H]2OC(C)(C)C[C@@]3(CO3)[C@@H]2O)O[C@@H]1C` [meayamycin]: the GI50 was 0.47 nM with DU145; 0.058 nM in the series on PC-3; 0.091 nM with H1299; 0.71 ± 0.27 nM in series [12]; 0.46 ± 0.09 nM in series [6]; 0.11 nM with A549. The GI50 was 0.024 nM in the series on MDA-MB-231, 0.01 nM in the series with MCF-7 [1], 0.24 nM in the series with HeLa and 0.044 nM in the series on HCT116. Besides, the p53 induction entry in series [9] (24 h) is reported as “magnitude of response was smaller”; in the series with A-549 lung cancer cells (24 h), “p53 induction”. Besides, in series [9] (FIG. 5), the “growth inhibition of normal lung cells (IMR-90)” value is on record as “only mildly”. Moreover, in the series with A-549 lung cancer cells (10 nM, 24 hours, compared with normal cells), the cell loss entry is on record as “more pronounced cell loss”. Also, the nuclear morphology result in the series with A-549 lung cancer cells (24 h) is listed as “did not cause nuclear fragmentation but instead enlarged nuclei”. The caspase cleavage entry in the series with A-549 lung cancer cells (24 h, some experiments) was “low level of caspase cleavage”. Also, the “growth inhibition of A549 cells” value with A-549 lung cancer cells (FIG. 4) is “inhibits the growth of A549 cells”. Further, the “reversibility of growth inhibition” value in the series with HeLa cells [10] is listed as “reversibly inhibits the growth”; with MCF-7 cells [11] it was “irreversibly inhibits the growth”; with A549 cells it was “irreversibly inhibits the growth”. Moreover, in series [12], the “activity in the multidrug resistant cells” value is recorded as “retained picomolar activity”. The fold resistance in series [12] was 1.5 fold. In the series with MCF-7 cells [5] (10 nM, 48 hours, listed as Compound IX, 0.01 µM), the “Percent Viable Cells” value was found to be 26%. Moreover, the results for the viability at 0.01 µM in the series with MCF-7 cells [5] (setting [13]) and in the series on MCF-7 cells [5] (setting [14]) were 46% and 27%, respectively. Also, in series [6], the “growth inhibition of parental DC3F cells” value is given as “active in the subnanomolar range”. In addition, the mitotic arrest result in the series with HeLa cells [7] is “neither FR 901464 nor meayamycin were mitotic arresters”.
As for `CC(=O)O[C@H]1C(=O)[C@@]2(C)[C@H]([C@H](OC(=O)c3ccccc3)[C@]3(O)C[C@H](OC(=O)[C@H](O)[C@@H](NC(=O)c4ccccc4)c4ccccc4)C(C)=C1C3(C)C)[C@]1(OC(C)=O)CO[C@@H]1C[C@@H]2O` [paclitaxel], in series [12], the “fold resistant (VCRd-5L cells)” value is 60 fold. The GI50 in series [12] (average ± SD (n)) amounted to 2680 ± 109 nM; in series [6] (average ± SD (n)), 45.4 ± 11.3 nM. Further, the “percent of cells present” value in the series on MCF-7 cells [5] (24 hour) amounted to 70%; with MCF-7 cells [5] (48 hour) it was 52%. For the same compound, the mitotic arrest entry with HeLa cells [7] is recorded as “caused mitotic arrest”.
As to `CC[C@]1(O)C[C@H]2CN(CCc3c([nH]c4ccccc34)[C@@](C(=O)OC)(c3cc4c(cc3OC)N(C=O)[C@H]3[C@@](O)(C(=O)OC)[C@H](OC(C)=O)[C@]5(CC)C=CCN6CC[C@]43[C@@H]65)C2)C1` [vincristine], in series [12], the “fold resistant (VCRd-5L cells)” value is given as more than 250 fold. In addition, the GI50 in series [12] (average ± SD (n)) is more than 5000 nM; in series [6] (average ± SD (n)) it was 18.8 ± 16.2 nM. Moreover, the mitotic arrest entry in the series on HeLa cells [7] was “caused mitotic arrest”.
